This experiment deals with iCell® DopaNeuron cultures. As to the kind of experiment: Excitability pharmacology on network bursting, multi-electrode array (MEA) recording. The experiment is classed as cell-based, human. The conditions noted are these: FIG. 11. The text has this: The following methods may be used to culture neural cells on a Mestro Multielectrode Array (MEA). iCell® Neurons are thawed and plated into a 48-well MEA plate pre-coated with […] Polyethyleneimine (PEI; Sigma) solution. On day 1 post-plating, 100% of spent medium is replaced with Neurobasal-A medium (NBA; Life Technologies) +10% KnockOut Serum Replacement (KSR; Life Technologies). On day 5 post-plating, 50% of spent medium is replaced with NBA +10% KSR. On day 8 post-plating, baseline activity is recorded, cells are treated with compounds, and the activity is subsequently recorded.
Data analysis and acquisition may be performed using AxIS Software (Axion Integrated Studio, Axion BioSystems). At or after day 8 post-plating, the neuronal preparation may be suitable for data acquisition. Data acquisition can include a pre-application recording (baseline), a compound application recording, followed by a post-application recording (dose). Electrical activity may be acquired using the AxIS Software. The CDlneuronconfig.datastream file can ensure the appropriate data acquisition settings are loaded into the AxIS Software.
In these experiments, iCell® DopaNeurons, iCell® Neurons, and iCell® Astrocytes were obtained from Cellular Dynamics International, Inc. (Madison, Wis.), mixed and cultured on MEA plates as described in Example 1. Cells were cultured in BrainPhys media (Bardy et al., 2015) obtained from the Salk Institute (La Jolla, Calif.).
Two examples of excitability pharmacology, THIP (top) and L-655,708 (bottom), on iCell® DopaNeuron cultures are shown in FIG. 11. THIP activates tonic inhibition, while L-655,708 decreases tonic inhibition.

Two compounds from patent US10444227B2, “Neural networks formed from cells derived from pluripotent stem cells” (FUJIFILM Cellular Dynamics, Inc., priority 2014, dated 2019) can be followed below.

“Also recorded” adds a separate entry of the source.

As to `CCOC(=O)c1ncn2c1[C@@H]1CCCN1C(=O)c1cc(OC)ccc1-2` [L-655,708], the “'after-quiet' following network burst” value is “abolished”, the “continuous rumbling of activity” value is “inducing a continuous rumble of activity that dominated activity; also recorded: inducing a continuous rumbling of activity”, the network burst intensity entry is recorded as “neither pharmacological agent altered network burst intensity” and the network synchrony result is reported as “de-synchronized the network”. Moreover, the post-bursting behaviors result is listed as “both altered post-bursting behaviors”.

Take `Oc1noc2c1CCNC2` [THIP]: the network burst intensity result was “neither pharmacological agent altered network burst intensity”, the “post-burst rumbling time (duration of post-burst rumble)” value is recorded as “shortened”, the post-bursting behaviors entry is “both altered post-bursting behaviors” and the “time (duration) of the entire burst” value was “shortened the time of the entire burst; also recorded: shortened the durations of the entire burst”.
